Experimental data published in US8263651B2, “Use of cis-epoxyeicosatrienoic acids and inhibitors of soluble epoxide hydrolase to treat conditions mediated by PBR, CB2, and NK2 receptors” (The Regents of the University of California, priority 2006, dated 2012).

Biological target: T1, sEH (Homo sapiens, UniProt P34913)
T1 sequence (P34913 1-555): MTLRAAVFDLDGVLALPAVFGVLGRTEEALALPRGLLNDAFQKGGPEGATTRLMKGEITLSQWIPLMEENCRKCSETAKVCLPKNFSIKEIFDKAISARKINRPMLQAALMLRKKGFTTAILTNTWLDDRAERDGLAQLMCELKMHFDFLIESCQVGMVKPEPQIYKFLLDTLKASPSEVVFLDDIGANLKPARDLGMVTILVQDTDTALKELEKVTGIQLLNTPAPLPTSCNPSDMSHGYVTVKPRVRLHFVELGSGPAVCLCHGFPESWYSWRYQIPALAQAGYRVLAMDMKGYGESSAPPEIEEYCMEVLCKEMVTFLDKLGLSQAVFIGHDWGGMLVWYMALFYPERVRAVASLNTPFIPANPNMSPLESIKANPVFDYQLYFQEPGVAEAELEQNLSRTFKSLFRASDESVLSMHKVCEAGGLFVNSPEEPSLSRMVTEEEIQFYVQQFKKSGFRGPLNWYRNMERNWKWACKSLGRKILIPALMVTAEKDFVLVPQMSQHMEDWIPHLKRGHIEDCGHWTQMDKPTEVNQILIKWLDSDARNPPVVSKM
Assay: sEH inhibition, assay not specified
Format: biochemical
From the text: Any of a number of standard assays for determining epoxide hydrolase activity can be used to determine inhibition of sEH. For example, suitable assays are described in Gill, et al., Anal Biochem 131:273-282 (1983); and Borhan, et al., Analytical Biochemistry 231:188-200 (1995)). Suitable in vitro assays are described in Zeldin et al., J. Biol. Chem. 268:6402-6407 (1993). Suitable in vivo assays are described in Zeldin et al., Arch Biochem Biophys 330:87-96 (1996). […]
The enzyme also can be detected based on the binding of specific ligands to the catalytic site which either immobilize the enzyme or label it with a probe such as dansyl, fluoracein, luciferase, green fluorescent protein or other reagent. […] The enzyme also can be detected based on the generation of fluorescent products following the hydrolysis of the epoxide. […]

CCCCCCCCCCCCNC(=O)NC12CC3CC(CC(C3)C1)C2 [ADU, N-Adamantyl-N′-dodecyl urea] was tested, and the “activity as an inhibitor of sEH” value was “particularly high activity”.
